Reference: US11787782B2, “Combinations of a 4-pyrimidinesulfamide derivative with active ingredients for the treatment of endothelin related diseases” (IDORSIA PHARMACEUTICALS LTD, priority 2017, dated 2023)
Blank lines part the entries; values can stand above or below the compound they belong to.

Columns and labels:
[1] = tested on: conscious, male spontaneously hypertensive rats; assay: Acute effects on top of Exforge HCT in SHRs (telemetry); assay type: in vivo, rat; details: for Blood pressure when added on top of Exforge HCT: aprocitentan 100 mg/kg or spironolactone 300 mg/kg oral, Exforge HCT 1.6/0.1/0.25 mg/kg
Procedure: The acute effects of Exforge HCT® (i.e. a fixed dose combination of valsartan/amlodipine/hydrochlorothiazide; dosage adapted for 1.6 mg/kg/0.1 mg/kg/0.25 mg/kg for valsartan/amlodipine/hydrochlorothiazide, respectively) on blood pressure, in particular on mean arterial blood pressure (hereafter “MAP”), and heart rate (hereafter “HR”) in combination with ACT-132577 or spironolactone were also evaluated by means of telemetry in conscious, male spontaneously hypertensive rats (hereafter “SHRs”-see details about this model in Atanur et al., Genome Res. (2010), 20, 791-803).
9 SHRs per treatment group were used for this test. To match the maximal effect on blood pressure of co-administered drug in this model, aprocitentan 100 mg/kg was administrated orally on the 3rd day following 3-day oral administration of Exforge HCT® mg/kg and spironolactone 300 mg/kg was co-administered orally with Exforge HCT® on the 1st day followed by 2 days of Exforge HCT® administration. The results obtained regarding MAP are summarised in FIGS. 19 and 20 wherein each data point is presented as a 6-hour mean.

[2] = tested on: conscious, male hypertensive deoxycorticosterone acetate salt rats; assay: Acute effects on top of Exforge HCT in DOCA-salt rats (telemetry); assay type: in vivo, rat; details: for Blood pressure when added on top of Exforge HCT: aprocitentan 10 mg/kg or spironolactone 300 mg/kg oral, Exforge HCT 3.2/0.2/0.5 mg/kg
Text: Res. (1975), 36, 300-309). In the DOCA-salt rats, hypertension is induced by the combination of unilateral nephrectomy, implantation of pellets of the mineralocorticoid analog DOCA, and provision of 1% sodium chloride in drinking water. 7-9 DOCA-salt rats per treatment group were used for this test. The results obtained regarding MAP are summarised in FIGS. 21 and 22 wherein each data point is presented as a 6-hour mean.

[3] = tested on: conscious, male hypertensive deoxycorticosterone acetate salt rats; assay: Chronic effects of repeated oral administration in DOCA-salt rats; assay type: in vivo, rat
Procedure: The chronic effects of repeated administrations of doses of 1, 10 and 100 mg/kg/day of ACT-132577, in particular mean arterial blood pressure (hereafter “MAP”), and heart rate (hereafter “HR”), were evaluated in conscious, male hypertensive deoxycorticosterone acetate salt rats (hereafter “DOCA-salt rats”-see details about this model in Gavras et al., Circ. Res. (1975), 36, 300-309). In the DOCA-salt rats, hypertension is induced by the combination of unilateral nephrectomy, implantation of pellets of the mineralocorticoid analog DOCA, and provision of 1% sodium chloride in drinking water. The results of the DOCA-salt rats treated with ACT-132577 were compared to those obtained for Wistar rats or for DOCA-salt rats that received only the vehicle (4% gelatin aquous solution).

[4] = tested on: conscious, male hypertensive Dahl salt-sensitive rats; assay: Acute effects on MAP and HR by telemetry in Dahl salt-sensitive rats; assay type: in vivo, rat; details: Dahl-S rats
Procedure: The acute effects of ACT-132577 on blood pressure, in particular on mean arterial blood pressure (hereafter “MAP”), and heart rate (hereafter “HR”) were evaluated by means of telemetry in conscious, male hypertensive Dahl salt-sensitive rats (hereafter “Dahl-S rats”—see details about this model in Rapp, Hypertension (1982), 4, 753-763). Elevated blood pressure is induced in Dahl-S rats by providing 1% sodium chloride in drinking water. Groups of 6-7 Dahl-S rats were used for the vehicle (7.5% gelatin aqeuous solution) and each dose of ACT-132577 tested (0.3, 1, 3, 10, 30, 100, and 300 mg/kg). Effects of ACT-132577 on HR and MAP were calculated for individual animals relative to the 24 h period before administering. The results obtained regarding MAP (maximal MAP decrease observed over 6 consecutive hours) are summarised in FIG. 9 (data are presented as mean±standard error of the mean). In summary, a dose of 10 mg/kg ACT-132577 decreased MAP by 19±4 mm Hg in Dahl-S rats. In contrast to MAP, HR was not affected.

[5] = tested on: conscious, male spontaneously hypertensive rats; assay: Acute effects on MAP and HR by telemetry in spontaneously hypertensive rats; assay type: in vivo, rat; details: SHRs
Procedure: The acute effects of ACT-132577 on blood pressure, in particular on mean arterial blood pressure (hereafter “MAP”), and heart rate (hereafter “HR”) were evaluated by means of telemetry in conscious, male spontaneously hypertensive rats (hereafter “SHRs”—see details about this model in Atanur et al., Genome Res. (2010), 20, 791-803). Groups of 4-6 SHRs were used for the vehicle (7.5% gelatin aquous solution) and each dose of ACT-132577 tested (1, 3, 10, 30, 100, and 300 mg/kg). Effects of ACT-132577 on HR and MAP were calculated for individual animals relative to the 24 h period before administering. The results obtained regarding MAP (maximal MAP decrease observed over 6 consecutive hours) are summarised in FIG. 11 (data are presented as mean±standard error of the mean). In summary, a dose of 100 mg/kg ACT-132577 decreased MAP by 18±4 mm Hg in SHRs. In contrast to MAP, HR was not affected.

[6] = tested on: conscious, male hypertensive deoxycorticosterone acetate salt rats; assay: Acute effects on MAP and HR by telemetry in DOCA-salt rats; assay type: in vivo, rat
Procedure: The acute effects of ACT-132577 on blood pressure, in particular on mean arterial blood pressure (hereafter “MAP”), and heart rate (hereafter “HR”) were evaluated by means of telemetry in conscious, male hypertensive deoxycorticosterone acetate salt rats (hereafter “DOCA-salt rats”—see details about this model in Gavras et al., Circ. Res. (1975), 36, 300-309). In the DOCA-salt rats, hypertension is induced by the combination of unilateral nephrectomy, implantation of pellets of the mineralocorticoid analog DOCA, and provision of 1% sodium chloride in drinking water. Groups of 6-11 DOCA-salt rats were used for the vehicle (7.5% gelatin aquous solution) and each dose of ACT-132577 tested (0.3, 1, 3, 10, 30, 100, and 300 mg/kg). Effects of ACT-132577 on HR and MAP were calculated for individual animals relative to the 24 h period before administering. The results obtained regarding MAP (maximal MAP decrease observed over 6 consecutive hours) are summarised in FIG. 10 (data are presented as mean±standard error of the mean). In summary, a dose of 10 mg/kg ACT-132577 decreased MAP by 29±6 mm Hg in DOCA-salt rats. In contrast to MAP, HR was not affected.

[7] = tested on: male Wistar rats; assay: Effect on fluid retention (haematocrit) in Wistar rats; assay type: in vivo, rat; details: single oral dose 1-30 mg/kg, 24 hours after administration
Procedure: A decrease in haematocrit (Hct) or haemoglobin occurs secondary to an increase in plasma volume and can be used as a marker of fluid retention. A single oral dose of aprocitentan (1-30 mg/kg) or vehicle (gelatin) was administered by gavage to male Wistar rats. Twenty-four hours after administration, sublingual blood was sampled under isoflurane-induced anesthesia. Haematocrit was measured using a hematology analyser.

[8] = in comparison to corresponding alkylated derivatives; cited from earlier work
[9] = Storage at room temperature (crystal form stability, XRPD and HPLC control); assay type: physicochemical; details: 20-25° C.
Procedure: All XRPD patterns for the solid forms described herein have been obtained as described hereafter. X-ray powder diffraction patterns were collected on a Bruker D8 Advance X-ray diffractometer equipped with a Lynxeye detector operated with CuKα-radiation in reflection mode (coupled two Theta/Theta). Typically, the X-ray tube was run at of 40 kV/40 mA. A step size of 0.02° (2θ) and a step time of 76.8 sec over a scanning range of 3-50° in 2θ were applied. The divergence slit was set to fixed 0.3. Powders were slightly pressed into a silicon single crystal sample holder with depth of 0.5 mm and samples were rotated in their own plane during the measurement. Diffraction data are reported using combined Cu Kα1 and Kα2 radiation, without Kα2 stripping. The accuracy of the 2θ values as provided herein is in the range of +/−0.1-0.2° as it is generally the case for conventionally recorded X-ray powder diffraction patterns. A sample of Form A crystals of the COMPOUND (as obtained according to Example 1 above) has been stored at a temperature of 20-25° C. at 92% relative humidity for 2 months. […] The same result was obtained after storage for 8 weeks under the above conditions. […] A sample of Form B crystals of a dichloromethane solvate of the COMPOUND (as obtained according to Example 2 above) has been stored in a closed vial ([…] of Form B crystals being placed in a closed 4 mL vial) at a temperature of 20-25° C. for about 3 weeks. […] A sample of Form K crystals of a dimethylsulfoxide solvate of the COMPOUND (as obtained according to Example 7 above) has been stored in a closed vial ([…] of Form K crystals being placed in a closed 4 mL vial) at a temperature of 20-25° C. for about 3 weeks.

[10] = Hygroscopicity by gravimetric vapor sorption (GVS); assay type: physicochemical
Text: Mass increase of a sample as obtained according to Example 1 in the first cycle from 40% r.h. to 80% r.h. corresponds to 0.4%. At 95% r.h. 2.2% moisture were taken up in a reversible way without hysteresis upon drying.

[11] = tested on: patients with rHT; details: 14 week phase 3 trial, cited from earlier work
[12] = DOCA-salt rats, 1, 10 and 100 mg/kg/day oral for 4 weeks
[13] = DOCA-salt rats, chronic oral administration
[14] = 10 mg/kg, mean±standard error of the mean

Compound: NS(=O)(=O)Nc1ncnc(OCCOc2ncc(Br)cn2)c1-c1ccc(Br)cc1 [ACT-132577, {5-(4-bromo-phenyl)-6-[2-(5-bromo-pyrimidin-2-yloxy)-ethoxy]-pyrimidin-4-yl}-sulfamide]
Blood pressure when added on top of Exforge HCT [1]: further reduced blood pressure
Blood pressure reduction compared with spironolactone, on top of Exforge HCT ([1]; aprocitentan 100 mg/kg vs spironolactone 300 mg/kg): greater blood pressure reduction than spironolactone
Blood pressure when added on top of Exforge HCT [2]: further reduced blood pressure
Blood pressure reduction compared with spironolactone, on top of Exforge HCT ([2]; aprocitentan 10 mg/kg vs spironolactone 300 mg/kg): greater blood pressure reduction than spironolactone
DOCA-salt-induced increase in MAP [3, 12]: dose-dependently attenuated the DOCA-salt-induced increase in MAP
Heart rate (HR) [3, 12]: without changing HR
Left ventricular hypertrophy [3, 13]: tended to decrease left ventricular hypertrophy
Plasma concentrations of N-terminal pro-brain natriuretic peptide (NTproBNP) [3, 13]: dose-dependent decrease
Renal blood flow [3, 13]: dose-dependently increased renal blood flow
Renal vascular resistance [3, 13]: decreased renal vascular resistance
MAP decrease (maximal decrease over 6 consecutive hours) [4, 14]: 19±4 mm Hg
Heart rate (HR) ([4]; doses 0.3-300 mg/kg): not affected
MAP decrease (maximal decrease over 6 consecutive hours) ([5]; 100 mg/kg, mean±standard error of the mean): 18±4 mm Hg
Heart rate (HR) ([5]; doses 1-300 mg/kg): not affected
MAP decrease (maximal decrease over 6 consecutive hours) [6, 14]: 29±6 mm Hg
Heart rate (HR) ([6]; doses 0.3-300 mg/kg): not affected
Haematocrit (Hct), marker of fluid retention [7]: did not impact on haematocrit
Clearance in vivo [8]: much shorter clearance
Half-life in vivo [8]: much longer half-life

Compound: COc1cc(OC)nc(O[C@H](C(=O)O)C(OC)(c2ccccc2)c2ccccc2)n1 [darusentan]
Fluid retention/edema (most frequent adverse event) ([11]; 12% in each of the other groups): 28%
Primary endpoint systolic blood pressure [11]: failed to show significant treatment effect
Reduction of ambulatory blood pressure [11]: demonstrated efficacy

Compound: CC(=O)S[C@@H]1CC2=CC(=O)CC[C@]2(C)[C@H]2CC[C@@]3(C)[C@@H](CC[C@@]34CCC(=O)O4)[C@H]12 [spironolactone, reference compound]
Blood pressure when added on top of Exforge HCT [1]: further reduced blood pressure
Blood pressure when added on top of Exforge HCT [2]: further reduced blood pressure

Results, then the compound that gave them:

Crystal form by X-ray powder diffraction after storage ([9]; 92% relative humidity, 2 months): still consisting only in Form A crystals
Crystal form by X-ray powder diffraction after storage ([9]; 92% relative humidity, 8 weeks): same result
HPLC control after storage (change in peak area %, degradation) ([9]; 92% relative humidity, 8 weeks): no significant degradation
Moisture taken up ([10]; at 95% r.h., reversible, without hysteresis upon drying): 2.2%
Mass increase ([10]; first cycle from 40% r.h. to 80% r.h.): 0.4%
Hygroscopicity (GVS) ([10]; sample obtained according to Example 1): slightly hygroscopic
Compound: NS(=O)(=O)Nc1ncnc(OCCOc2ncc(Br)cn2)c1-c1ccc(Br)cc1 [Form A, {5-(4-bromo-phenyl)-6-[2-(5-bromo-pyrimidin-2-yloxy)-ethoxy]-pyrimidin-4-yl}-sulfamide]

Crystal form by X-ray powder diffraction after storage in a closed vial ([9]; closed 4 mL vial, about 3 weeks): transformed into Form A crystals
Compound: NS(=O)(=O)Nc1ncnc(OCCOc2ncc(Br)cn2)c1-c1ccc(Br)cc1 [Form B, {5-(4-bromo-phenyl)-6-[2-(5-bromo-pyrimidin-2-yloxy)-ethoxy]-pyrimidin-4-yl}-sulfamide]
